Measured values from PubChem BioAssay AID1259411 (Chemical Carcinogenesis Research Information System (CCRIS), 2018).
Active and inactive are the calls of the source. No rule for the calls is given here.

Tested on: rodent carcinogenicity bioassays, tumor incidence
Test: CCRIS carcinogenicity studies
Method in brief: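 Archive of carcinogenicity, mutagenicity, tumor promotion and tumor inhibition results drawn from journals, NCI reports and other sources, expert-reviewed; covers 1985-2011 and is no longer updated.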

For `ClC1C(Cl)C(Cl)C(Cl)C(Cl)C1Cl` (configuration not stated), the carcinogen call (Species: MOUSE, Strain/Sex: B6C3F1/FEMALE, Route: ORAL, Dose: 0, 80, 160 PPM IN DIET FOR 80 WK (STUDY DURATION: 90-91 WK), Dose: 0, 80, 160 PPM IN DIET FOR 80 WK (STUDY DURATION: 90-91 WK)) was “inactive; negative”, the carcinogen call (Species: MOUSE, Strain/Sex: CF-1/MALE,FEMALE, Route: ORAL, Dose: 200 MG/KG IN DIET, Tumor Site: Type of Lesion: LIVER: BENIGN TUMOR OR MALIGNANT TUMOR) was “active; positive” and the carcinogen call (Species: MOUSE, Strain/Sex: CF-1/MALE,FEMALE, Route: ORAL, Dose: 400 MG/KG IN DIET, Tumor Site: Type of Lesion: LIVER: BENIGN TUMOR OR MALIGNANT TUMOR) was “active; positive”. For the same molecule, the carcinogen call (Species: MOUSE, Strain/Sex: DD/MALE, Route: ORAL, Dose: 0, 6.6, 66, 660 PPM IN BASAL DIET UNTIL SACRIFICE AT 24 WK (STUDY DURATION: 24 WK), Dose: 0, 6.6, 66, 660 PPM IN BASAL DIET UNTIL SACRIFICE AT 24 WK (STUDY DURATION: 24 WK), Tumor Site: Type of Lesion: LIVER: HEPATOMA) was “active; positive”, the carcinogen call (Species: MOUSE, Strain/Sex: MALE,FEMALE, Route: ORAL, Tumor Site: Type of Lesion: LIVER: BENIGN TUMOR OR MALIGNANT TUMOR) was “active; positive” and the carcinogen call (Species: RAT, Strain/Sex: OSBORNE-MENDEL/FEMALE, Route: ORAL, Dose: 0, 135, 270 PPM TWA, IN DIET FOR 80 WK (STUDY DURATION: 108-110 WK), Dose: 0, 135, 270 PPM TWA, IN DIET FOR 80 WK (STUDY DURATION: 108-110 WK)) was “inactive; negative”. The carcinogen call (Species: RAT, Strain/Sex: OSBORNE-MENDEL/MALE, Route: ORAL, Dose: 0, 236, 472 PPM TWA, IN DIET FOR 80 WK (STUDY DURATION: 109-110 WK), Dose: 0, 236, 472 PPM TWA, IN DIET FOR 80 WK (STUDY DURATION: 109-110 WK)) was “inactive; negative”, the carcinogen call (Species: Rat, Strain/Sex: Wistar/Female (50/Group), Route: Oral, Dose: 0, 0.06, 0.57, 5.6, 23.1 mg/kg/day of 99.5-99.7% lindane in diet for 18 mo, study duration 18 mo, Dose: 0, 0.06, 0.57, 5.6, 23.1 mg/kg/day of 99.5-99.7% lindane in diet for 18 mo, study duration 18 mo) was “inactive; negative” and the carcinogen call (Species: Rat, Strain/Sex: Wistar/Male (50/Group), Route: Oral, Dose: 0, 0.05, 0.45, 4.5, 18.7 mg/kg/day of 99.5-99.7% lindane in diet for 18 mo, study duration 18 mo, Dose: 0, 0.05, 0.45, 4.5, 18.7 mg/kg/day of 99.5-99.7% lindane in diet for 18 mo, study duration 18 mo) was “inactive; negative”.
`CC(F)(Cl)Cl` was tested, and the carcinogen call (Species: RAT, Strain/Sex: SPRAGUE-DAWLEY/FEMALE, Route: INHALATION, Dose: 0, 1500, 5000, 20000 PPM 6 HR/D 5 D/WK FOR 104 WK (THE HIGH EXPOSURE LEVEL WAS INCREASED FROM 15000 PPM TO 20000 PPM AFT, Dose: 0, 1500, 5000, 20000 PPM 6 HR/D 5 D/WK FOR 104 WK (THE HIGH EXPOSURE LEVEL WAS INCREASED FROM 15000 PPM TO 20000 PPM AFT) was “inactive; negative” and the carcinogen call (Species: RAT, Strain/Sex: SPRAGUE-DAWLEY/MALE, Route: INHALATION, Dose: 0, 1500, 5000, 20000 PPM 6 HR/D 5 D/WK FOR 104 WK (THE HIGH EXPOSURE LEVEL WAS INCREASED FROM 15000 PPM TO 20000 PPM AFT, Dose: 0, 1500, 5000, 20000 PPM 6 HR/D 5 D/WK FOR 104 WK (THE HIGH EXPOSURE LEVEL WAS INCREASED FROM 15000 PPM TO 20000 PPM AFT, Tumor Site: Type of Lesion: TESTES: INTERSTITIAL CELL ADENOMA) was “active; positive”.
In the case of `C[C@]12CCC(=O)C=C1CC[C@@H]1[C@@H]2CC[C@]2(C)C(=O)CC[C@@H]12`, the carcinogen call (Species: Mouse, Strain/Sex: B6C3F1/Female (50/Group), Route: Oral, Dose: 0, 2, 10, 50 mg/kg in 0.5% methylcellulose solution, by gavage, 5 d/wk for 2 yr, Dose: 0, 2, 10, 50 mg/kg in 0.5% methylcellulose solution, by gavage, 5 d/wk for 2 yr, Tumor Site: Type of Lesion: Liver: hepatocellular adenoma (14/50, 16/50, 18/50, 28/50), hepatocellular carcinoma (5/50, 13/50, 15/50, 15/50), hepato, Tumor Site: Type of Lesion: Liver: hepatocellular adenoma (14/50, 16/50, 18/50, 28/50), hepatocellular carcinoma (5/50, 13/50, 15/50, 15/50), hepato) is reported as “active; positive. (authors describe as clear evidence)”, the carcinogen call (Species: Mouse, Strain/Sex: B6C3F1/Male (50/Group), Route: Oral, Dose: 0, 10, 20, 50 mg/kg in 0.5% methylcellulose solution, by gavage, 5 d/wk for 2 yr, Dose: 0, 10, 20, 50 mg/kg in 0.5% methylcellulose solution, by gavage, 5 d/wk for 2 yr, Tumor Site: Type of Lesion: Liver: hepatocellular adenoma, multiple (16/50, 27/50, 23/50, 34/50), hepatocellular adenoma (includes multiples) (32/50) is reported as “active; positive. (authors describe as clear evidence)” and the carcinogen call (Species: Rat, Strain/Sex: F344/N / Female (50/Group), Route: Oral, Dose: 0, 10, 20, 50 mg/kg in 0.5% methylcellulose solution, by gavage, 5 d/wk for 2 yr, Dose: 0, 10, 20, 50 mg/kg in 0.5% methylcellulose solution, by gavage, 5 d/wk for 2 yr) is reported as “inactive; negative. (authors describe as equivocal evidence based on incidence of mononucl”. The carcinogen call (Species: Rat, Strain/Sex: F344/N / Male (50/Group), Route: Oral, Dose: 0, 10, 20, 50 mg/kg in 0.5% methylcellulose solution, by gavage, 5 d/wk for 2 yr, Dose: 0, 10, 20, 50 mg/kg in 0.5% methylcellulose solution, by gavage, 5 d/wk for 2 yr) was “inactive; negative. (authors describe as equivocal evidence based on alveolar/bronchiolar”.
With `FC(F)=C(F)F` the carcinogen call (Species: MOUSE, Strain/Sex: B6C3F1/FEMALE, Route: INHALATION, Dose: 0, 312, 625, 1250 PPM 6 HR/D 5 D/WK FOR 95-96 WK (STUDY DURATION: 96 WK), Dose: 0, 312, 625, 1250 PPM 6 HR/D 5 D/WK FOR 95-96 WK (STUDY DURATION: 96 WK), Tumor Site: Type of Lesion: LIVER: HEMANGIOMA, HEMANGIOSARCOMA, HEPATOCELLULAR CARCINOMA, HEMATOPOIETIC SYSTEM: HISTIOCYTIC SARCOMA) was “active; positive”, the carcinogen call (Species: MOUSE, Strain/Sex: B6C3F1/MALE, Route: INHALATION, Dose: 0, 312, 625, 1250 PPM 6 HR/D 5 D/WK FOR 95-96 WK (STUDY DURATION: 96 WK), Dose: 0, 312, 625, 1250 PPM 6 HR/D 5 D/WK FOR 95-96 WK (STUDY DURATION: 96 WK), Tumor Site: Type of Lesion: LIVER: HEMANGIOMA, HEMANGIOSARCOMA, HEPATOCELLULAR CARCINOMA, HEMATOPOIETIC SYSTEM: HISTIOCYTIC SARCOMA) was “active; positive” and the carcinogen call (Species: RAT, Strain/Sex: F344/FEMALE, Route: INHALATION, Dose: 0, 312, 625, 1250 PPM 6 HR/D 5 D/WK FOR 104 WK (STUDY DURATION: 106 WK), Dose: 0, 312, 625, 1250 PPM 6 HR/D 5 D/WK FOR 104 WK (STUDY DURATION: 106 WK), Tumor Site: Type of Lesion: KIDNEY(RENAL TUBULE): ADENOMA, ADENOMA OR CARCINOMA, LIVER: HEMANGIOSARCOMA, HEPATOCELLULAR ADENOMA, HEPATOCELLULAR CARC) was “active; positive”. For the same molecule, the carcinogen call (Species: RAT, Strain/Sex: F344/MALE, Route: INHALATION, Dose: 0, 156, 312, 625 PPM 6 HR/D 5 D/WK FOR 104 WK (STUDY DURATION: 106 WK), Dose: 0, 156, 312, 625 PPM 6 HR/D 5 D/WK FOR 104 WK (STUDY DURATION: 106 WK), Tumor Site: Type of Lesion: KIDNEY(RENAL TUBULE): ADENOMA, LIVER: HEPATOCELLULAR CARCINOMA, HEPATOCELLULAR ADENOMA OR CARCINOMA) was “active; positive”.
For `CCOS(C)(=O)=O`, the carcinogen call (Species: MOUSE, Route: INTRAPERITONEAL, Tumor Site: Type of Lesion: LUNG, KIDNEY) was “active; positive”, the carcinogen call (Species: MOUSE, Route: SUBCUTANEOUS, Tumor Site: Type of Lesion: LUNG) was “active; positive” and the carcinogen call (Species: MOUSE, Strain/Sex: ICR/FEMALE, Route: SUBCUTANEOUS, Dose: 0, 20 UMOL/MOUSE IN TRIOCTANOIN INTO LEFT FLANK, 1/WK FOR 52 WK (STUDY DURATION: 450 D), Tumor Site: Type of Lesion: THYMUS GLAND: LYMPHOMA, LUNG: ADENOMA) was “active; positive”. The carcinogen call (Species: RAT, Route: INTRAPERITONEAL, Tumor Site: Type of Lesion: LUNG, KIDNEY) was “active; positive”.
`CC(C)=CCl` was tested, and the carcinogen call (Species: MOUSE, Strain/Sex: B6C3F1/FEMALE, Route: GAVAGE, Dose: 0, 100, 200 MG/KG IN CORN OIL 5 D/WK FOR 102 WK, Dose: 0, 100, 200 MG/KG IN CORN OIL 5 D/WK FOR 102 WK, Tumor Site: Type of Lesion: FORESTOMACH: SQUAMOUS CELL CARCINOMA, SQUAMOUS CELL PAPILLOMA) was “active; positive”, the carcinogen call (Species: MOUSE, Strain/Sex: B6C3F1/MALE, Route: GAVAGE, Dose: 0, 100, 200 MG/KG IN CORN OIL 5 D/WK FOR 102 WK, Dose: 0, 100, 200 MG/KG IN CORN OIL 5 D/WK FOR 102 WK, Tumor Site: Type of Lesion: FORESTOMACH: SQUAMOUS CELL CARCINOMA, SQUAMOUS CELL PAPILLOMA, PREPUTIAL GLAND: SQUAMOUS CELL CARCINOMA) was “active; positive” and the carcinogen call (Species: RAT, Strain/Sex: F344/FEMALE, Route: GAVAGE, Dose: 0, 100, 200 MG/KG IN CORN OIL 5 D/WK FOR 103 WK, Dose: 0, 100, 200 MG/KG IN CORN OIL 5 D/WK FOR 103 WK, Tumor Site: Type of Lesion: NASAL CAVITY: CARCINOMA (NOS), CARCINOMA (NOS) OR SQUAMOUS CELL CARCINOMA, ADENOCARCINOMA, ESOPHAGUS: SQUAMOUS CELL CARC) was “active; positive”. The carcinogen call (Species: RAT, Strain/Sex: F344/MALE, Route: GAVAGE, Dose: 0, 100, 200 MG/KG IN CORN OIL 5 D/WK FOR 103 WK, Dose: 0, 100, 200 MG/KG IN CORN OIL 5 D/WK FOR 103 WK, Tumor Site: Type of Lesion: NASAL CAVITY: CARCINOMA (NOS), SQUAMOUS CELL CARCINOMA, ADENOCARCINOMA, ESOPHAGUS: SQUAMOUS CELL PAPILLOMA, SQUAMOUS CEL) was “active; positive”.
